In US20020035111A1, “Method of inhibiting neoplastic cells with tetracyclic pyrido[3,4-B] indole derivatives” (priority 1998, published 2002):

SMILES	melting point [°C]
COc1ccc([C@H]2c3[nH]c4ccc(F)cc4c3C[C@@H]3C(=O)N(CC(F)(F)F)CC(=O)N23)cc1 (relative stereo) [Example 5, Cis-2,3,6,7,12,12a-Hexahydro-10-Fluoro-6-(4-Methoxyphenyl)-2-(2,2,2-Trifluoroethyl)-Pyrazino(2′,1′:6,1)Pyrido(3,4-b)Indole-1,4-Dione]	190
O=C1[C@H]2Cc3c([nH]c4ccccc34)[C@H](c3ccc4c(c3)OCO4)N2C(=O)CN1Cc1cccnc1 (relative stereo) [Example 11, Cis-2,3,6,7,12,12a-Hexahydro-2-(3-Pyridylmethyl)-6-(3,4-Methylenedioxyphenyl)-Pyrazino(2′,1′:6,1)Pyrido(3,4-b)Indole-1,4-Dione]	292 to 293
O=C1[C@H]2Cc3c([nH]c4ccccc34)[C@H](c3ccc4c(c3)OCO4)N2C(=O)CN1CC(F)(F)F (relative stereo) [Example 14, Cis-2,3,6,7,12,12a-Hexahydro-2-(2,2,2-Trifluoroethyl)-6-(3,4-Methylenedioxyphenyl)-Pyrazino(2′,1′:6,1)Pyrido(3,4-b)Indole-1,4-Dione]	303
CC(C)N1CC(=O)N2[C@@H](c3ccc4c(c3)OCO4)c3[nH]c4ccccc4c3C[C@@H]2C1=O (relative stereo) [Example 16, Cis-2,3,6,7,12,12a-Hexahydro-2-Isopropyl-6-(3,4-Methylenedioxyphenyl) Pyrazino(2′,1′:6,1)Pyrido(3,4-b)Indole-1,4-Dione]	248 to 250
O=C1[C@H]2Cc3c([nH]c4ccccc34)[C@H](c3ccc4c(c3)OCO4)N2C(=O)CN1Cc1ccccc1 (relative stereo) [Example 23, Cis-2,3,6,7,12,12a-Hexahydro-2-Benzyl-6-(3,4-Methylenedioxyphenyl)Pyrazino(2′,1′:6,1)Pyrido(3,4-b)Indole-1,4-Dione]	285 to 287
COc1ccc([C@H]2c3[nH]c4ccccc4c3C[C@@H]3C(=O)N(CC(F)(F)F)CC(=O)N23)cc1 (relative stereo) [Example 28, Cis-2,3,6,7,12,12a-Hexahydro-6-(4-Methoxyphenyl)-2-(2,2,2-Trifluoroethyl)Pyrazino(2′,1′:6,1)Pyrido(3,4-b)Indole-1,4-Dione]	232
COc1ccc([C@H]2c3[nH]c4ccccc4c3C[C@@H]3C(=O)N(Cc4ccccc4)CC(=O)N23)cc1 (relative stereo) [Example 32, Cis-2,3,6,7,12,12a-Hexahydro-2-Benzyl-6-(4-Methoxyphenyl)Pyrazino(2′,1′:6,1)Pyrido(3,4-b)Indole-1,4-Dione]	275 to 279
O=C1[C@H]2Cc3c([nH]c4ccccc34)[C@H](c3ccc4c(c3)CCO4)N2C(=O)CN1CC1CC1 (relative stereo) [Example 37, Cis-2,3,6,7,12,12a-Hexahydro-6-(2,3-Dihydrobenzo(b)Furan-5-yl)-2-Cyclopropylmethyl-Pyrazino(2′,1′:6,1)Pyrido(3,4-b)Indole-1,4-Dione]	165 to 166
CCCCN1CC(=O)N2[C@@H](c3ccccc3Cl)c3[nH]c4ccccc4c3C[C@@H]2C1=O (relative stereo) [Example 40, Cis-2,3,6,7,12,12a-Hexahydro-2-Butyl-6-(2-Chlorophenyl) Pyrazino(2′,1′:6,1)Pyrido(3,4-b)Indole-1,4-Dione]	146
CN1CC(=O)N2[C@@H](c3ccc4c(c3)CCCC4)c3[nH]c4ccccc4c3C[C@@H]2C1=O (relative stereo) [Example 47, Cis-2,3,6,7,12,12a-Hexahydro-2-Methyl-6-(1,2,3,4-Tetrahydro-6-Naphthyl)Pyrazino(2′,1′:6,1)Pyrido(3,4-b)Indole-1,4-Dione]	260
CC(C)N1CC(=O)N2[C@@H](c3ccc4c(c3)CCCC4)c3[nH]c4ccccc4c3C[C@@H]2C1=O (relative stereo) [Example 48, Cis-2,3,6,7,12,12a-Hexahydro-2-Isopropyl-6-(1,2,3,4-Tetrahydro-6-Naphthyl)Pyrazino(2′,1′:6,1)Pyrido(3,4-b)Indole-1,4-Dione]	244 to 246
CN1CC(=O)N2[C@@H](c3ccc(Br)s3)c3[nH]c4ccccc4c3C[C@@H]2C1=O (relative stereo) [Example 52, Cis-2,3,6,7,12,12a-Hexahydro-6-(5-Bromo-2-Thienyl)-2-Methylpyrazino(2′,1′:6,1)Pyrido(3,4-b)Indole-1,4-Dione]	258
CN1CC(=O)N2[C@@H](c3cc(Br)cs3)c3[nH]c4ccccc4c3C[C@@H]2C1=O (relative stereo) [Example 53, Cis-2,3,6,7,12,12a-Hexahydro-6-(4-Bromo-2-Thienyl)-2-Methylpyrazino(2′,1′:6,1)Pyrido(3,4-b)Indole-1,4-Dione]	292
Cc1ccc([C@H]2c3[nH]c4ccccc4c3C[C@@H]3C(=O)N(C)CC(=O)N23)s1 (relative stereo) [Example 56, Cis-2,3,6,7,12,12a-Hexahydro-2-Methyl-6-(5-Methyl-2-Thienyl)Pyrazino(2′,1′:6,1)Pyrido(3,4-b)Indole-1,4-Dione]	282
CCCCN1CC(=O)N2[C@@H](c3ccsc3)c3[nH]c4ccccc4c3C[C@@H]2C1=O (relative stereo) [Example 58, Cis-2,3,6,7,12,12a-Hexahydro-2-Butyl-6-(3-Thienyl)-Pyrazino(2′,1′:6,1)Pyrido(3,4-b)Indole-1,4-Dione]	236 to 239
CN1CC(=O)N2[C@@H](c3ccoc3)c3[nH]c4ccccc4c3C[C@@H]2C1=O (relative stereo) [Example 59, Cis-2,3,6,7,12,12a-Hexahydro-2-Methyl-6-(3-Furyl)-Pyrazino(2′,1′:6,1)Pyrido(3,4-b)Indole-1,4-Dione]	250
Cc1ccc([C@H]2c3[nH]c4ccccc4c3C[C@@H]3C(=O)N(C)CC(=O)N23)o1 (relative stereo) [Example 60, Cis-2,3,6,7,12,12a-Hexahydro-2-Methyl-6-(5-Methyl-2-Furyl)-Pyrazino(2′,1′:6,1)Pyrido(3,4-b)Indole-1,4-Dione]	303
CCCCN1CC(=O)N2[C@@H](c3ccc(C)cc3)c3[nH]c4ccccc4c3C[C@@H]2C1=O (relative stereo) [Example 63, Cis-2,3,6,7,12,12a-Hexahydro-2-Butyl-6-(4-Methylphenyl)-Pyrazino(2′,1′:6,1)Pyrido(3,4-b)Indole-1,4-Dione]	194
CC(C)c1ccc([C@H]2c3[nH]c4ccccc4c3C[C@@H]3C(=O)N(C)CC(=O)N23)cc1 (relative stereo) [Example 74, Cis-2,3,6,7,12,12a-Hexahydro-6-(4-Isopropylphenyl)-2-Methylpyrazino(2′,1′:6,1)Pyrido(3,4-b)Indole-1,4-Dione]	244

Now from value to molecule:

melting point [°C]	SMILES
188	CCCCN1CC(=O)N2[C@@H](c3ccc(NS(C)(=O)=O)cc3)c3[nH]c4ccccc4c3C[C@@H]2C1=O (relative stereo) [Example 100, Cis-2,3,6,7,12,12a-Hexahydro-2-Butyl-6-(4-Methylsulfonamidophenyl)-Pyrazino(2′,1′:6,1)Pyrido(3,4-b)Indole-1,4-Dione]
183 to 184	CCCCN1CC(=O)N2[C@H](c3ccc(OC)cc3)c3[nH]c4ccccc4c3C[C@@H]2C1=O [Example 85, (6R,12aR)-2,3,6,7,12,12a-Hexahydro-2-Butyl-6-(4-Methoxyphenyl)-Pyrazino(2′,1′:6,1)Pyrido(3,4-b)Indole-1,4-Dione]
210 to 211	COc1ccc([C@@H]2c3[nH]c4ccccc4c3C[C@@H]3C(=O)N(C4CCCC4)CC(=O)N23)cc1 [Example 86, (6R,12aR)-2,3,6,7,12,12a-Hexahydro-2-Cyclopentyl-6-(4-Methoxyphenyl)-Pyrazino(2′,1′:6,1)Pyrido(3,4-b)Indole-1,4-Dione]
176	O=C1[C@H]2Cc3c([nH]c4ccccc34)[C@@H](c3ccc4c(c3)CCC4)N2C(=O)CN1CC1CC1 [Example 94, (6R,12aR)-2,3,6,7,12,12a-Hexahydro-6-(5-Indanyl)-2-Cyclopropylmethylpyrazino(2′,1′:6,1)Pyrido(3,4-b)Indole-1,4-Dione]
265 to 266	COc1ccc(CCN2CC(=O)N3[C@H](c4ccc5c(c4)OCO5)c4[nH]c5ccccc5c4C[C@@H]3C2=O)cc1OC [Example 104, (6R,12aR)-2,3,6,7,12,12a-Hexahydro-2-(3,4-Dimethoxyphenethyl)-6-(3,4-Methylenedioxyphenyl)-Pyrazino(2′,1′:6,1)Pyrido(3,4-b)Indole-1,4-Dione]
219	O=C1[C@H]2Cc3c([nH]c4ccccc34)[C@@H](c3ccc4c(c3)OCO4)N2C(=O)CN1Cc1ccco1 [Example 105, (6R,12aR)-2,3,6,7,12,12a-Hexahydro-2-Furfuryl-6-(3,4-Methylenedioxyphenyl)-Pyrazino(2′,1′:6,1)Pyrido(3,4-b)Indole-1,4-Dione]
240	CN1CC(=O)N2[C@H](c3ccc4c(c3)CCN4)c3[nH]c4ccccc4c3C[C@@H]2C1=O [Example 111, (6R,12aR)-2,3,6,7,12,12a-Hexahydro-6-(5-Indolinyl)-2-Methyl-Pyrazino(2′,1′:6,1)Pyrido(3,4-b)Indole-1,4-Dione]
224 to 226	CN1CC(=O)N2[C@H](c3ccc(O)c(O)c3)c3[nH]c4ccccc4c3C[C@@H]2C1=O [Example 118, (6R, 12aR)-2,3,6,7,12,12a-Hexahydro-6-(3,4-Dihydroxyphenyl)-2-Methylpyrazino(2′,1′:6,1)Pyrido(3,4-b)Indole-1,4-Dione]
291 to 293	CN1CC(=O)N2[C@H](c3ccc4occc4c3)c3[nH]c4ccccc4c3C[C@@H]2C1=O [Example 120, (6R, 12aR)-2,3,6,7, 12, 12a-Hexahydro-6-(5-Benzofuranyl)-2-Methyl-Pyrazino[2′,1′:6,1]Pyrido[3,4-b]Indole-1,4-Dione]
291 to 292	CC(C)N1CC(=O)N2[C@H](c3ccc4occc4c3)c3[nH]c4ccccc4c3C[C@@H]2C1=O [Example 122, (6R, 12aR)-2,3,6,7, 12, 12a-Hexahydro-6-(5-Benzofuranyl)-2-Isopropyl-Pyrazino [2′,1′:6,1]Pyrido [3,4-B]Indole-1,4-Dione]
